Values of other authors, collected in PMC9308844, “Development of new copper-64 labeled rhodamine: a potential PET myocardial perfusion imaging agent” (EJNMMI Radiopharmacy and Chemistry, 2022).

Set-up: method as in earlier work
Details: ref Baranyai et al. [2020]; Clarke et al. 1990; Clarke and Martell [1991a], [b]; Wadas et al. [2010]; Tolmachev et al. [2017]

Log K of Cu^II complex: 21.6
Structure (SMILES): O=C([O-])CN1CCN(CC(=O)[O-])CCN(CC(=O)[O-])CC1.[Cu+2] [[Cu^II NOTA]]
